Read-outs that look alike come from different tables or passages of the source. Values belong to the compound of their own block, whether it stands above or below them.
Columns and labels:
Ec IspE = conditions: cited from earlier work
PfIspE [1] = target: T1, PfIspE (Plasmodium falciparum, UniProt Q8I470); assay: Biochemical IspE assay (PK/LDH-coupled, NADH oxidation at 340 nm)
Text: (§1) Here, we initiated a high-throughput screening (HTS) campaign on the PfIspE protein (Section S1 in the Supporting Information). The HTS was based on a proprietary library of 100 000 compounds from the BASF company and used the inhibitory potency of the compound against the IspE protein as the readout. The IC50 from the IspE assay was also a key parameter for our chemical optimization study. Therefore, it is important to note that the activity of the target enzyme in the IspE assay is coupled to the oxidation of NADH (which is followed spectrophotometrically at 340 nm) via a cascade of the auxiliary enzymes pyruvate kinase and lactate dehydrogenase (PK/LDH, Section S2 in the Supporting Information). Accordingly, to confirm that the effects observed in the IspE assay are due to inhibition of the target enzyme rather than the auxiliary enzymes, it is crucial to maintain a difference between the PK/LDH and IspE enzymatic activities. Furthermore, as we have previously reported, the biological testing of this chemical class requires careful handling such as storage of the compounds at −20 °C.[19] Based on what has been reported in the literature, a risk-mitigation strategy involves adding a substituent to the C-5 position of the thiazole ring,[20] which we have adhered to in this SAR exploration. […]
(§2) kBar. The lysate was then centrifuged at 15000 rpm for 80 minutes at 4 °C to remove cell debris, and the supernatant was collected.
(§3) 1.2. Protein Purification
(§4) The supernatant containing the target protein was applied to a Ni-chelating Sepharose column (1 cm x 20 cm) that had been equilibrated with the lysis buffer containing 15 mM imidazole. The column was washed with the same buffer supplemented with 15 mM imidazole until the OD280 reached the baseline. The bound proteins were then eluted from the column using a gradient of imidazole ranging from 15 mM to 600 mM, collected in a volume of 100 mL.
(§5) If further purification was required, size exclusion chromatography was performed using a Superdex200 (GE, 2 cm x 60 cm) column. The column was equilibrated with the lysis buffer without imidazole. The eluted IspE fractions from the previous chromatography step were directly applied to the top of the Superdex200 column.
(§6) The purity and integrity of the purified PfIspE protein were assessed using SDS-PAGE.
(§7) The molecular weight of the protein was estimated by comparison with standard protein markers. The concentration of the purified protein was determined using a NanoDrop.
(§8) The purified PfIspE protein was aliquoted and stored at - 80 °C until further use.
(§9) (Note: All procedures were performed at 4 °C unless otherwise specified ).
(§10) 2.0 Biochemical IspE assay
(§11) Escherichia coli IspE[1] and Plasmodium falciparum IspE[2] for IspE assays was expressed, isolated and purified as previously described. All other enzymes and chemicals used in the assays were purchased from Sigma-Aldrich (Taufkirchen, […]
For testing of compounds in the IspE assay, CDP-ME (0.2 mM) in 100 mM Tris-HCl, pH 7.6, 0.02% NaN3 (30 µL) was added to a well of the 384-well microplate, preloaded either with DMSO or with test compound dissolved in DMSO (3 µL). The reaction was started by addition of 100 mM Tris-HCl, pH 7.6, 10 mM MgCl2, 60 mM KCl, 10 mM dithiothreitol, 0.02% NaN3, 1 mM NADH, 2 mM phosphoenolpyruvate, 2 mM ATP, […]
pyruvate kinase (1 U mL–1), lactate dehydrogenase (1 U mL–1) and E. coli IspE (0.05 U mL–1) (27 µL per microplate well).
IC50 values were measured at CDP-ME concentration 100 µM. […]
(§12) For both kinds of assays the OD values in the microplate wells were monitored photometrically at 340 nm (room temperature) for 30 to 90 min in a plate reader (SpectraMax5, […], USA). Initial rate values were evaluated with a nonlinear regression method using the program Dynafit.[3]
Figure S1 : IC50 curve of compound 19.
(1 picture or pasted object on this page, not shown here)

[2] = target: PK-LDH (pyruvate kinase/lactate dehydrogenase); assay: Pyruvate kinase assay (auxiliary enzymes PK/LDH); type: biochemical; conditions: determined for PfIspE IC50 < 100 μM
Text: as §1, with “°C.[19]” for “°C.[19] Based on what has been reported in the literature, a risk-mitigation strategy involves adding a substituent to the C-5 position of the thiazole ring,[20] which we have adhered to in this SAR exploration.”
as §12, with “Dynafit.[3] […]” for “Dynafit.[3]”

PfNF54 = assay: [3H]-hypoxanthine incorporation assay, asexual blood stage parasites; type: cell-based; conditions: Plasmodium falciparum
Protocol: However, direct comparison of the two assays is extremely difficult. Consequently, it is essential to note that the existence of additional target proteins within P. falciparum at this stage is neither confirmed nor ruled out. […]
the compound activity against P. falciparum NF54 asynchronous parasites, the [3H]- hypoxanthine incorporation assay was used as described.[4] Compounds dissolved in DMSO (10 mg/mL) are diluted in hypoxanthine - free culture media and was titrated in duplicates over a 64-fold range in 96 well plates. Parasite culture diluted to 0.3% parasitemia with 1.25% final haematocrit with hypoxantine-free medium was added at 100 µL to each well. Following a 48 h incubation, […] [3H]-hypoxanthine was added per well. Plates are incubated for another 24 h. Radioactivity was then measured using MicroBeta2 liquid scintillation counter (Perkin Elmer, Waltham, US) following parasite harvesting onto Microbeta FilterMate cell harvester (Perkin, Elmer, Waltham, US). The fifty percent inhibitory concentration (IC50) was then calculated by linear interpolation as described.[5]
For the background lysate, HEK293 cells (passage 27) were grown to 90% confluency in Dulbecco´s Modified Eagle´s Medium (DMEM high glucose, Sigma) supplemented with 2 mM L-glutamine and 10% (v/v) heat-inactivated fetal calf serum (FCS) in T-175 cell culture flasks. Lysis was performed using HEPES buffer (pH 7.5 , Roth) containing 1% Nonidet P 40 alternative (NP-40), 0.4% sodium dodecyl sulfate (SDS, Roth) and 1% sodium deoxycholate (Roth). The lysate was gently sonicated three times for 10 s on a Bandelin Sonoplus HD2070 at 10% amplitude. The lysate was cleared by centrifugation at 16.000 x g for 10 min. The protein content of the supernatant was determined using a BCA assay (ROTIQuant, Roth) according to the suppliers specifications and adjusted to 5 µg/µL to yield the stock solutions used in the […]
7.2 Reaction with probe 23
The protein samples were prepared to result in 50 µg lysate protein per lane and/or 10 µg of the respective recombinant protein (see section 1 of this SI). […]

EcIspE [3] = target: T2, EcIspE (Escherichia coli, UniProt P62615); assay: Analytical SDS-PAGE, photoprobe labelling and competition of probe 23 with compound 19; type: binding; conditions: for Probe binding to IspE (SDS-PAGE): probe 10 µM, native protein
T2 construct: made in house
T2 sequence (P62615 whole entry): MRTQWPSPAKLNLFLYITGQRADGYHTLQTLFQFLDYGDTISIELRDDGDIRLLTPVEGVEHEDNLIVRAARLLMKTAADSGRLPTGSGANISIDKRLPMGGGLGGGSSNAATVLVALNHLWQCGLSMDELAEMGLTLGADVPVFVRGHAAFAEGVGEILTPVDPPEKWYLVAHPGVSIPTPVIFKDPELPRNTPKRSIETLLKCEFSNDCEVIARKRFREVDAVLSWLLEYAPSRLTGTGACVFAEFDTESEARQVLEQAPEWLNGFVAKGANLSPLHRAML

PfIspE [4] = target: T1, PfIspE; assay: as above; type: binding; conditions: for Probe binding to IspE (SDS-PAGE): probe 10 µM, native protein
EcIspE [5] = target: T2, EcIspE; assay: Biochemical IspE assay (PK/LDH-coupled); conditions: Table S1; read-out: Inhibitory potency on EcIspE
Protocol: as §2, §3, §4, §5, §6, §7, §8, §9, §10, §11
as §12, with “Dynafit.[3] […]” for “Dynafit.[3]”

[6] = CDP-ME concentration 100 µM, read-out: IC50 PfIspE
[7] = parasite growth, 72 h total incubation, read-out: IC50 PfNF54
[8] = competitor 19 in 15 times excess
[9] = compound 19 in 15 times excess to probe 23 (10 µM)

T1 sequence (Q8I470 entry or part of it): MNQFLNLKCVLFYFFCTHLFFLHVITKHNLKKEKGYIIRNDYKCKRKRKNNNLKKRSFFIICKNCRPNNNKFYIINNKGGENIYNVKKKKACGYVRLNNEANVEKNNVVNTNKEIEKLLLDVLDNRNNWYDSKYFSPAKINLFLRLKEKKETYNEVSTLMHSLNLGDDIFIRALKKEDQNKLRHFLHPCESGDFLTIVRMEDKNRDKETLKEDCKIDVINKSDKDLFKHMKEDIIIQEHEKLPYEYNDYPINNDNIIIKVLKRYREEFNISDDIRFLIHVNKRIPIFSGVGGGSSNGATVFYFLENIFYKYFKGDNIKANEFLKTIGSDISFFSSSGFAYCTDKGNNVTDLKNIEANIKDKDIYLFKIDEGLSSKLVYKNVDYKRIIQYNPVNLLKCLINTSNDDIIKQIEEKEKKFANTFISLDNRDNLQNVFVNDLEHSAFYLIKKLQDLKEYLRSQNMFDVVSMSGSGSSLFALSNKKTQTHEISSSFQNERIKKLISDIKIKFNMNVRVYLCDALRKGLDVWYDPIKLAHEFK

Structure (SMILES): Nc1nc(=O)n(C2CCCS2)cc1C#CCNS(=O)(=O)C1CC1 (stereo not shown) [Compound 1]
- IC50 (Ec IspE): 8 ± 0.1 µM

Structure (SMILES): CCOC(=O)CC1(n2cc(C#CCNS(=O)(=O)C3CC3)c(N)nc2=O)COC1 [Compound 1a]
- IC50 (Ec IspE): 590 ± 10 µM

Structure (SMILES): NCCC(=O)Nc1ccc(I)cc1Oc1cc(Cl)cc(Cl)c1 [Compound 2]
- IC50 (Ec IspE): 63 ± 15 µM

Structure (SMILES): Oc1csc(Nc2nccs2)n1 [Compound 7]
- IC50 (Ec IspE): 160 ± 0.9 µM

Structure (SMILES): C1=C(c2c[nH]c3ncccc23)CCNC1 [Compound 8]
- IC50 (Ec IspE): 1500 ± 300 µM

- IC50 (PfIspE [1]; [6]): 405 ± 114 µM
Structure (SMILES): CCn1c(C)cc(-c2csc(Nc3cccc(C(F)(F)F)c3)n2)c1C [Compound 9]

- IC50 (PfIspE [1]; [6]): > 500 µM
Structure (SMILES): CCn1c(C)cc(-c2csc(Nc3ccccc3C(F)(F)F)n2)c1C [Compound 10]

- IC50 (PfIspE [1]; [6]): 128 ± 23 µM
Structure (SMILES): CCn1c(C)cc(-c2csc(Nc3ccc(C(F)(F)F)cc3)n2)c1C [Compound 11]

- IC50 (PfIspE [1]; [6]): > 500 µM
Structure (SMILES): CCn1c(C)cc(-c2csc(Nc3ccccc3)n2)c1C [Compound 12]

- IC50 (PfIspE [1]; [6]): > 500 µM
Structure (SMILES): CCn1c(C)cc(-c2csc(Nc3ccc(N(C)C)cc3)n2)c1C [Compound 13]

- IC50 (PfIspE [1]; [6]): > 500 µM
Structure (SMILES): CCn1c(C)cc(-c2csc(Nc3ccc(OC)cc3)n2)c1C [Compound 14]

- IC50 (PfIspE [1]; [6]): 111 ± 34 µM
Structure (SMILES): CCn1c(C)cc(-c2csc(Nc3ccc(Cl)cc3)n2)c1C [Compound 15]

- IC50 (PfIspE [1]; [6]): 216 ± 53 µM
Structure (SMILES): CCn1c(C)cc(-c2csc(Nc3ccc(Cl)nc3)n2)c1C [Compound 16]

- IC50 (PfIspE [1]; [6]): 143 ± 24 µM
Structure (SMILES): CCn1c(C)cc(-c2csc(Nc3cc(Cl)cc(Cl)c3)n2)c1C [Compound 17]

Structure (SMILES): CCn1c(C)cc(-c2csc(Nc3ccc(CN)cc3)n2)c1C [Compound 18]
- IC50 (PfIspE [1]): 86 ± 44 µM
- IC50 [2]: > 500 µM

Structure (SMILES): CCn1c(C)cc(-c2csc(Nc3ccc4[nH]cnc4c3)n2)c1C [Compound 19]
- Boost in IspE inhibitory potency compared to initial hit 9 (PfIspE [1]): 8 fold
- IC50 (PfIspE [1]; [6]): 53 ± 19 µM
- IC50 (PfNF54; corresponding to 0.82 μg/mL, read-out: IC50 PfNF54 converted to molar): ~2.4 µM
- IC50 (PfNF54; [7]): 0.82 ± 0.01 µg/mL
- IC50 [2]: > 500 µM
- Reduction in fluorescence of probe 23 label (EcIspE [3]; [8]): 63%
- Relative fluorescence of probe 23 label remaining (EcIspE [3]; [9]): about 37%
- Reduction in fluorescence of probe 23 label (PfIspE [4]; [8]): 48%
- Relative fluorescence of probe 23 label remaining (PfIspE [4]; [9]): ~52%

- IC50 (PfIspE [1]; [6]): 121 ± 17 µM
Structure (SMILES): CCn1c(C)cc(-c2csc(Nc3ccc4[nH]ncc4c3)n2)c1C [Compound 20]

Structure (SMILES): C#CCn1c(C)cc(-c2csc(Nc3cccc(CC(F)(F)F)c3)n2)c1C [Compound 21]
- IC50 (PfIspE [1]; [6]): 286 ± 55 µM
- IC50 (EcIspE [5]): > 500 µM

Structure (SMILES): C#CCn1c(C)cc(-c2csc(Nc3ccc(CC(F)(F)F)cc3)n2)c1C [Compound 22]
- IC50 (PfIspE [1]; [6]): 192 ± 21 µM
- IC50 (EcIspE [5]): 31 ± 13 µM

Structure (SMILES): C#CCn1c(C)cc(-c2csc(Nc3ccc(C4(C(F)(F)F)N=N4)cc3)n2)c1C [Compound 23]
- IC50 (PfIspE [1]; [6]): 145 ± 42 µM
- IC50 (PfNF54; [7]): 9.8 ± 2.9 µg/mL
- IC50 (EcIspE [5]): 77 ± 16 µM
- Probe binding to IspE (SDS-PAGE) (EcIspE [3]): high affinity
- Probe binding to IspE (SDS-PAGE) (PfIspE [4]): high affinity

Structure (SMILES): C#CCCC1(CC(=O)Nc2ccccc2)N=N1 [Compound 24, reference compound]
- Probe binding to IspE (SDS-PAGE) (EcIspE [3]): does not show the same binding profile
- Probe binding to IspE (SDS-PAGE) (PfIspE [4]): does not show the same binding profile

Source: publication PMC11541488, “Targeting the Plasmodium falciparum IspE Enzyme” (ACS Omega, 2024)
